Values of other authors as cited in patent US20240408209A1, “Peptide-Protected Gold Nanocluster and Use in Photodynamic Therapy” (Queen's University at Kingston, priority 2023, published 2024).

Details: positive control

## CN(C)c1ccc2nc3ccc(=[N+](C)C)cc-3sc2c1 [Methylene blue]
  QY of photochemical generation of 1O2: 0.52
